Assays:
[1] = system: endothelium-intact aortic rings; experiment: Vascular reactivity of aortic rings from C57/BL6 mice (myograph, TABLE 28); set-up: species or system mouse
Protocol: (§1) Aortic rings from eight to ten-week old male C57/BL6 mice were used to investigate the effects of Compound 2 on endothelial function. Twelve to fourteen-week old male Ins2^Akita mice and non-diabetic littermate controls were used to study the effects of Compound 2 on diabetes-associated endothelial dysfunction. Myograph experiments were performed in modified Krebs-Henseleit solution. Aortae were dissected free of adhering tissue, cut into 2-mm segments, and mounted in 5-mL myograph chambers under a basal tension of 1 g. Relaxation to cumulatively increasing concentrations (0.001-100 μmol/L) of Compound 2 or solvent (DMSO) was assessed in endothelium-intact aortic segments pre-contracted with phenylephrine (1 μmol/L) in the absence or presence of N^ω-nitro-L-arginine methyl ester (L-NAME; 300 μmol/L).
To assess the role for VE-PTP in the regulation of vascular reactivity, endothelium-intact rings of murine aortae were incubated with increasing concentrations of Compound 2.
FIG. 24 panels A-D illustrate the effect of Compound 2 on endothelial function. FIG. 24 panel A illustrates concentration dependent effect of Compound 2 on the tone of endothelium-intact aortic rings. Experiments were performed in the absence and presence of an eNOS inhibitor, L-NAME (300 μmol/L). FIG. 24 panels B-D illustrate the effect of solvent (Sol, DMSO) and Compound 2 (1, 3, or 10 μmol/L) on the contractile response to phenylephrine (PE; FIG. 24 panel B), and relaxation induced by either sodium nitroprusside (SNP; FIG. 24 panel C) or acetylcholine (ACh; FIG. 24 panel D). The dotted line in FIG. 24 panel D represents responses in endothelium-denuded aortic rings; n=5 mice/group.

[2] = system: endothelium-intact aortic rings from WT and Akita mice; experiment: Vascular reactivity of aortic rings from diabetic Ins2Akita mice and WT littermates (TABLE 29); set-up: species or system mouse; conditions: 10 μmol/L
Protocol: as §1
To determine whether VE-PTP inhibition affects endothelial dysfunction that accompanies diabetes, aortic rings were isolated from 12-week old diabetic Ins2^Akita(Akita) mice and their non-diabetic littermates.
FIG. 29 panels A-B illustrate the effects of Compound 2 on diabetes-induced endothelial dysfunction. FIG. 29 panel A illustrates the effects of Compound 2 on acetylcholine-induced relaxation of endothelium-intact aortic rings from WT and Akita mice.

human endothelial cells = experiment: NO assay (nitrite in supernatant) in human endothelial cells; format: cell-based; conditions: 0.3-30 μmol/L, 30 minutes
Protocol: Confluent human endothelial cell monolayers were cultured overnight in MCDB131 containing 0.1% BSA and sepiapterin (10 μmol/L). The monolayers were then incubated with increasing concentrations of Compound 2 (0.3-30 μmol/L) or solvent (DMSO) for 30 minutes. In separate experiments, cells treated with a control siRNA or siRNA directed against ABL1 were cultured in MCDB131 containing 0.1% BSA and sepiapterin (10 μmol/L), and then treated with Compound 2 (30 μmol/L) or solvent (DMSO) for 30 minutes before the addition of Yoda1 (1 μmol/L) for an additional 30 minutes. HEK293 cells co-transfected with wild-type eNOS and wild-type ABL1, DN ABL1, or GFP (as a control) were cultured overnight in minimal essential medium containing 0.5% heat-inactivated FCS and sepiapterin (10 μmol/L). Aliquots of the culture media were collected before and after each treatment. Potential cell debris was removed by centrifugation of the media at 1000 rpm for 5 minutes. NO release was assessed by determining the amount of nitrite in the cell supernatants using a Nitric Oxide Analyzer after reaction with iodide and acetic acid under nitrogen at room temperature.
To investigate the role of VE-PTP on the regulation of eNOS, human endothelial cells were treated with increasing concentrations of Compound 2 (for 30 minutes) and the generation of NO was assessed using a NO analyzer.

recombinant human VE-PTP = recombinant human VE-PTP (Homo sapiens, UniProt P23467); experiment: Human VE-PTP (HPTPβ) phosphatase assay on eNOS Tyr81; format: biochemical; conditions: pre-incubation with 10 μmol/L; cell-free
recombinant human VE-PTP, sequence (P23467 23-1997): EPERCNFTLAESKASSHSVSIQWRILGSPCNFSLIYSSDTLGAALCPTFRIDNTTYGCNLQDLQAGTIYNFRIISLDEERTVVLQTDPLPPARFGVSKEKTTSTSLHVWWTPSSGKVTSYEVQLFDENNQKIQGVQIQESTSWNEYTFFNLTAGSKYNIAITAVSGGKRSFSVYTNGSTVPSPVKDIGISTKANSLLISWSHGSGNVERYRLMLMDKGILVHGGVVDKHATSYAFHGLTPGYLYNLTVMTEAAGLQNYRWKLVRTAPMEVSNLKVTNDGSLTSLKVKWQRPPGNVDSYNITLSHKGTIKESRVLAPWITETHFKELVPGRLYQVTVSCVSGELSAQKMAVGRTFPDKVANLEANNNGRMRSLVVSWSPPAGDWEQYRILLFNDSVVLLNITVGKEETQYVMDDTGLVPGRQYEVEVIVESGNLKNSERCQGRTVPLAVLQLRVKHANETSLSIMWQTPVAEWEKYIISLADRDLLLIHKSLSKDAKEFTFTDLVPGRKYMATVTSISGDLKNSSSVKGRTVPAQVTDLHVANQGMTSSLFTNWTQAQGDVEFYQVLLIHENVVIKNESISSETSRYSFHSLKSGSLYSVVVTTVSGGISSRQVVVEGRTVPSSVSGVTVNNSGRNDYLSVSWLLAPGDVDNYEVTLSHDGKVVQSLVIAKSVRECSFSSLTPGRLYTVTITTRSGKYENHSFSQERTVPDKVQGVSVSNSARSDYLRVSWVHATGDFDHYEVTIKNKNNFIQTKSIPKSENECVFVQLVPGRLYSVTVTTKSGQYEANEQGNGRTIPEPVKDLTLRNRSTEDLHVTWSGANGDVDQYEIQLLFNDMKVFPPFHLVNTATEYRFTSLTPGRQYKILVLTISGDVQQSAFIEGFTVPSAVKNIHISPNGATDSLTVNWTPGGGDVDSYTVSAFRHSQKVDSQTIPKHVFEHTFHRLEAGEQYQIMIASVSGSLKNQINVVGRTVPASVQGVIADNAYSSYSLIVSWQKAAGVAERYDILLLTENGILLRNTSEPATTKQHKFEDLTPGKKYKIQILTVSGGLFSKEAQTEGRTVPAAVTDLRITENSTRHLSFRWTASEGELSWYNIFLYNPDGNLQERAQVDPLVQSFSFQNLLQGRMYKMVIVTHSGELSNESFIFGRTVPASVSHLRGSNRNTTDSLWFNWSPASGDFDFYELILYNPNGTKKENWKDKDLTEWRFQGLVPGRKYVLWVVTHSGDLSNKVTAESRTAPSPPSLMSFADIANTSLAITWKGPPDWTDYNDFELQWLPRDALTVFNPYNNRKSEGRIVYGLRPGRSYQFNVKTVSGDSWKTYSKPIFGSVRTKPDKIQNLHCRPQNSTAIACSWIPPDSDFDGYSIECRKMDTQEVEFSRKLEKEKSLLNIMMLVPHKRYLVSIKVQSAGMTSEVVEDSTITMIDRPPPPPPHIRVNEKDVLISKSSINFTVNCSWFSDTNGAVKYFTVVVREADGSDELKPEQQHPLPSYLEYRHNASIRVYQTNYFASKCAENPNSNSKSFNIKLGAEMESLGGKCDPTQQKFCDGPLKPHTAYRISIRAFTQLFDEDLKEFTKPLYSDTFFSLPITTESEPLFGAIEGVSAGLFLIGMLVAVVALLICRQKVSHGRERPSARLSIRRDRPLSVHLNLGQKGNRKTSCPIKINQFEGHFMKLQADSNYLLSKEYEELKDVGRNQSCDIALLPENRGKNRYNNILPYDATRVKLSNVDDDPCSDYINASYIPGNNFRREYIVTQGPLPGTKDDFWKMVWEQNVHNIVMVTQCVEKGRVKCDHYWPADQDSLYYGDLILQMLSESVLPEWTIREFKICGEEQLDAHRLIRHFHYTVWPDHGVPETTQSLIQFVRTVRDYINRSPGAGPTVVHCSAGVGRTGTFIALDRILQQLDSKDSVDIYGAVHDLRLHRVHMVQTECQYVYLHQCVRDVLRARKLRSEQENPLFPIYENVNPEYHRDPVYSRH
Protocol: Confluent monolayers of human endothelial cells expressing FLAG-tagged eNOS were cultured overnight in MCDB131 containing 0.1% BSA and then stimulated with Yoda1 (1 μmol/L) for 30 minutes to elicit phosphorylation of eNOS on Tyr81. eNOS-FLAG immunoprecipitates were used as substrates to test the ability of recombinant human VE-PTP to dephosphorylate eNOS Tyr81 in a cell-free in vitro reaction. Briefly after washing the FLAG-eNOS, immunoprecipitates were suspended in phosphatase assay buffer containing Tris/HCl pH 7.5 (50 mmol/L), NaCl (150 mmol/L), EDTA (1 mmol/L), and EDTA-free protease inhibitors mix at room temperature. An aliquot of the eNOS-FLAG immunoprecipitate was immediately processed for immunoblotting (input) and the remainder was divided into 6 identical aliquots and incubated for up to 10 minutes at room temperature in phosphatase assay buffer containing DTT (3 mmol/L) and recombinant human VE-PTP (100 U/50 μl reaction). Experiments were performed in the presence of solvent (1% DMSO) or Compound 2 (10 μmol/L) and reactions were stopped by boiling samples for 10 minutes in SDS sample buffer. eNOS phosphorylation was then analyzed by SDS-PAGE and immunoblotting.

Sprague-Dawley rats = experiment: MCT lung injury rat model of pulmonary hypertension (TABLE 30); format: in vivo; conditions: subset (n=3) of the monocrotaline group; s.c. injection at day 21
Protocol: The MCT lung injury rat model was used to assess the effects of a Tie-2 activator disclosed herein, Compound 2, as a vasodilator of the pulmonary vasculature. At day 0, rats were treated with a single dose of 60 mg/kg monocrotaline (N=5) and compared to control rats (N=5), which were treated with vehicle. Animals from both groups underwent normal rodent care until day 21. At day 21, rats underwent simultaneous cannulation of the carotid and pulmonary artery/right ventricle. Arterial pressure was measured before and after subcutaneous injection of vehicle. Following the washout period of time, rats underwent the same measurements before and after subcutaneous injection of Compound 2. Hemodynamic endpoints included systemic pressure (via carotid catheterization) and pulmonary vascular pressure (right ventricular systolic pressure) vs. true pulmonary arterial pressure.
FIG. 31 panel A illustrates the effects of Compound 2 on mean arterial blood pressure (ABP), heart rate, and right ventricular pressure. Each time point represents a beat-to-beat analysis for each variable over a 2-min period, which were then averaged. […] All animals received Compound 2 at time=0 min.
After obtaining hemodynamic data, the rats were euthanized to assess the extent of RV hypertrophy, a marker of PH. […] RV hypertrophy was calculated based on the Fulton index using the following weight ratio: (RV/(LV+S)).

[3] = arteries precontracted with phenylephrine, n=5 mice/group

## CCc1nc([C@H](Cc2ccc(NS(=O)(=O)O)cc2)NC(=O)[C@H](Cc2ccccc2)NC(=O)OC)cs1 [Compound 2]
[1]; 1, 3, or 10 μmol/L, 30 minutes
  phenylephrine-induced contractions and sodium nitroprusside-induced relaxations: Neither phenylephrine-induced contractions nor sodium nitroprusside-induced relaxations were affected
[1]; 1, 3, or 10 μmol/L, concentration-dependent
  acetylcholine-induced relaxations of endothelium-intact vessels: significantly enhanced
[1]; L-NAME 300 μmol/L
  relaxation response in presence of eNOS inhibitor L-NAME: abolished
[1]; [3]
  Emax of concentration-dependent relaxation: 73.4±2.9%
  pEC50 of concentration-dependent relaxation: 5.14±0.05 log mol/L
[2]; Ins2Akita mice
  acetylcholine-induced and NO-mediated relaxation in aortic rings from diabetic mice: restored
  elevated phenylephrine-induced contraction of aortic rings: not influenced
[2]; tissues from non-diabetic mice
  acetylcholine-induced endothelium-dependent relaxation: potentiated responses
Human endothelial cells
  basal NO production (nitrite in supernatant): enhanced basal NO production
Recombinant human VE-PTP
  time-dependent dephosphorylation of eNOS Tyr81 by recombinant VE-PTP: abolished
Sprague-Dawley rats
  right ventricular pressure: significant drop in right ventricular pressure
